From ChEMBL document CHEMBL1944626, “Design, synthesis and biological evaluation of N-phenylsulfonylnicotinamide derivatives as novel antitumor inhibitors” (Bioorg Med Chem, 2012)
Calls of active or inactive are those of the source. The calls are words filed in the database; no cut-off is given here.

How the values were obtained:
MCF7 = assay: Antiproliferative activity against human MCF7 cells after 48 hrs by MTT assay; type: functional, cell-based; details: MCF7, 48 h
[1] = target: T1, Epidermal growth factor receptor (Homo sapiens, UniProt P00533); assay: Inhibition of autophosphorylation of recombinant His-tagged EGFR expressed in baculovirus infected Sf9 cells after 1 hr by DELFIA/time-resolved fluorimetry assay
T1 sequence (P00533 whole entry): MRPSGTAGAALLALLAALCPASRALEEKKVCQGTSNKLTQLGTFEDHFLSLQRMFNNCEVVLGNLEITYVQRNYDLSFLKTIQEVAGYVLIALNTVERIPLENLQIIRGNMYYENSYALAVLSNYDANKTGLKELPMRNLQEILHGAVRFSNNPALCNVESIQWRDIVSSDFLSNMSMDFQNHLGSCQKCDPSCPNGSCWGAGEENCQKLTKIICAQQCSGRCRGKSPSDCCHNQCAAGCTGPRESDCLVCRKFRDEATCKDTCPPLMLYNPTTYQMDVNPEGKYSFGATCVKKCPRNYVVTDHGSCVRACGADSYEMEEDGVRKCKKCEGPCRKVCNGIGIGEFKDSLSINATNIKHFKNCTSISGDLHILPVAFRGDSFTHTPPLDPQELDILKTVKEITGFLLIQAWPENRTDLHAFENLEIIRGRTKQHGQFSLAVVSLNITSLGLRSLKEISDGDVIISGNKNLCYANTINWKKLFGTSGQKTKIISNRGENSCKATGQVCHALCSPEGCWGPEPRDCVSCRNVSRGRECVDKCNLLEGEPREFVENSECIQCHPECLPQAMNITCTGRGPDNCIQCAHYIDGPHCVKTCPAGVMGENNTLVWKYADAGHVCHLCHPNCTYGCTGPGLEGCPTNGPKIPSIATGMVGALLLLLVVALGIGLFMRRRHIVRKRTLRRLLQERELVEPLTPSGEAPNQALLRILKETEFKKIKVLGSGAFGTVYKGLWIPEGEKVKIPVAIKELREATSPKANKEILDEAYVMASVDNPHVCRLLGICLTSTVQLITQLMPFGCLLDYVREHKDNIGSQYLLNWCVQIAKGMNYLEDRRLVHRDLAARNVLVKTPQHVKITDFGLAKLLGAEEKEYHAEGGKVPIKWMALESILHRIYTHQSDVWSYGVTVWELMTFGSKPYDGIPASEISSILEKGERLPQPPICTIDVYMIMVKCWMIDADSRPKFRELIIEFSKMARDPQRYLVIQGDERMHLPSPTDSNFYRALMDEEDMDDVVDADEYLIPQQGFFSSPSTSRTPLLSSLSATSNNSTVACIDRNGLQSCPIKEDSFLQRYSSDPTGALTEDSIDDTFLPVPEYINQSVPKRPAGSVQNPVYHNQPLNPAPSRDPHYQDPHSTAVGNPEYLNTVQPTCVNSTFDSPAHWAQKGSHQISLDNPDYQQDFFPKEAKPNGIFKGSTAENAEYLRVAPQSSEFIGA

[2] = target: T1, Epidermal growth factor receptor; assay: Inhibition of EGF-stimulated EGFR autophosphorylation in human MCF7 cells at >1.5 uM treated 1 hr before EGF challenge measured after 15 mins by Western immunoblot analysis; type: cell-based

Row | SMILES | IC50 (MCF7) | IC50 [1] | inhibition [2]
1 | O=C(NS(=O)(=O)c1ccc(Cl)cc1)c1cncc(Br)c1 | 0.07 µM | 0.09 µM | Active
2 | Cc1ccc(C(=O)NS(=O)(=O)c2ccc(Cl)cc2)c(Cl)n1 | 1.35 µM | 1.19 µM | –
3 | O=C(NS(=O)(=O)c1ccc(F)cc1)c1cncc(Br)c1 | 0.98 µM | 3.27 µM | –
4 | Cc1ccc(S(=O)(=O)NC(=O)c2ccc(Cl)nc2)cc1 | 17.2 µM | > 30 µM | –
5 | O=C(NS(=O)(=O)c1ccccc1)c1ccc(Cl)nc1 | 14.1 µM | > 30 µM | –
6 | Cc1ccc(S(=O)(=O)NC(=O)c2ccc(C)nc2Cl)cc1 | 8.52 µM | 15 µM | –
7 | O=C(NS(=O)(=O)c1ccc(Cl)cc1)c1cccnc1 | 13 µM | 25.4 µM | –
8 | O=C(NS(=O)(=O)c1ccc(Br)cc1)c1cccnc1 | 14.7 µM | > 30 µM | –
9 | Cc1ccc(S(=O)(=O)NC(=O)c2cncc(Br)c2)cc1 | 9.37 µM | 12.1 µM | –
10 | O=C(NS(=O)(=O)c1ccc(Br)cc1)c1cncc(Br)c1 | 0.34 µM | 2.08 µM | –
11 | O=C(NS(=O)(=O)c1ccccc1)c1cccnc1Cl | 14 µM | > 30 µM | –
12 | Cc1ccc(C(=O)NS(=O)(=O)c2ccccc2)c(Cl)n1 | 13.4 µM | 21.6 µM | –
13 | Cc1ccc(S(=O)(=O)NC(=O)c2cccnc2Cl)cc1 | 12.5 µM | 27 µM | –
14 | O=C(NS(=O)(=O)c1ccc(F)cc1)c1cccnc1Cl | 12.5 µM | 28.7 µM | –
15 | Cc1ccc(C(=O)NS(=O)(=O)c2ccc(Br)cc2)c(Cl)n1 | 1.97 µM | 2.64 µM | –
16 | O=C(NS(=O)(=O)c1ccc(Cl)cc1)c1cccnc1Cl | 10.2 µM | 19.8 µM | –
17 | O=C(NS(=O)(=O)c1ccc(Br)cc1)c1cccnc1Cl | 11.4 µM | 15.7 µM | –
18 | O=C(NS(=O)(=O)c1ccccc1)c1cccnc1 | 14.4 µM | > 30 µM | –
19 | O=C(NS(=O)(=O)c1ccc(Br)cc1)c1ccc(Cl)nc1 | 9.05 µM | 29.1 µM | –
20 | Cc1ccc(S(=O)(=O)NC(=O)c2cccnc2)cc1 | 12 µM | 24.8 µM | –
21 | O=C(NS(=O)(=O)c1ccc(Cl)cc1)c1ccc(Cl)nc1 | 8.07 µM | 18.1 µM | –
22 | O=C(NS(=O)(=O)c1ccc(F)cc1)c1ccc(Cl)nc1 | 16.8 µM | > 30 µM | –
23 | O=C(NS(=O)(=O)c1ccc(F)cc1)c1cccnc1 | 16 µM | > 30 µM | –
